Where a SMILES comes first, the peptide text is derived from it. [ ]: non-standard residue; d: D form. 2Nal = N[C@@H](Cc1ccc2ccccc2c1)C(=O)O
Test system: PC9 human lung cancer cells
Assay type: in vivo, male nude mice
Method: 12 male nude mice (BALB/cAnN.Cg-Foxn1nu/CrlNarl) were purchased from National Laboratory Animal Center, Taiwan.
100 μl human lung cancer cell PC9 (3×10^6 cells) in Matrigel (Corning) was injected subcutaneously into the dorsal side of 5-week-old male nude mice. Each mouse was inoculated two sites on its back (Taguchi F, Koh Y, Koizumi F, Tamura T, Saijo N, et al. (2004) Anticancer effects of ZD6474, a VEGF receptor tyrosine kinase inhibitor, in gefitinib (“Iressa”)-sensitive and resistant xenograft models. Cancer Sci 95: 984-989.). 1 week 5 days after implantation (cancer size>95 mm^3), 12 mice were allocated randomly into two group. One group was received K4R2Nal2S1 (5 mg/Kg, dissolving in 100 μl PBS buffer) by tail vein injection three times a week, the other group was injected PBS as control.
Body weight and cancer size were measured three times a week. The cancer volume was calculated by formula of width^2×length×0.52. The cancer volume below 100% of the pretreatment volume was defined as “cancer reduction” (Taguchi F, Koh Y, Koizumi F, Tamura T, Saijo N, et al. (2004) Anticancer effects of ZD6474, a VEGF receptor tyrosine kinase inhibitor, in gefitinib (“Iressa”)-sensitive and resistant xenograft models. Cancer Sci 95: 984-989.). “Cancer reduction” was confirmed when the mice were dissected.
The mice were sacrificed after treatment of 40 days, the cancers were removed, photographed, and weighed. All animal experiments were performed in accordance with the animal guidelines of the National Tsing Hua University Institutional Animal Care and approved by Animal Care Committee.
Solid cancers were fixed in 4% formaldehyde buffer. Paraffin-embedded tissues were cut to 2 μm-thickness sections, and deparaffinized in ultraclear buffer (J.T. Baker) and graded ethanol. The morphology of cancers was obtained by Hematoxylin and eosin (H&E) stained sections. In addition, the sections were immunostained with anti-cleaved-PARP (1:100) antibody (Cell Signaling, clone number: D65E10).
Tissue images were captured using light microscope (Eclipse E400, Nikon) with digital microscopy camera (AxioCam ICc 5, ZEISS), at 40×, 200× and 400× fields.
To evaluate the anticancer effect of K4R2Nal2-S1 peptide in vivo, PC9 cells were implanted subcutaneously to nude mice (see FIG. 7A) and followed by K4R2-Nal2-S1 injection via the intravenous route, at a dose of 5 mg/kg, three times weekly (FIGS. 7B and 7C).
To examine the involvement of necrosis and apoptosis in K4R2Nal2-S1 peptide mediated anticancer effect, lung tumors generated in the xenograft mouse model were excised and analyzed by Hematoxylin and eosin (H&E) staining and immunohistochemistry for cleaved PARP, a marker for cell apoptosis.

[1] = 5 mg/kg i.v., three times weekly, harvested 40 days after injection

## CC(=O)N[C@@H](CCCCN)C(=O)N[C@@H](CCCCN)C(=O)N[C@@H](CCCCN)C(=O)N[C@@H](CCCCN)C(=O)N[C@@H](CCCNC(=N)N)C(=O)N[C@@H](CCCNC(=N)N)C(=O)N[C@@H](Cc1ccc2ccccc2c1)C(=O)N[C@@H](Cc1ccc2ccccc2c1)C(=O)N[C@@H](CCCCN)C(=O)N[C@@H](CCCCN)C(=O)N[C@@H](Cc1c[nH]c2ccccc12)C(=O)N[C@@H](CCCNC(=N)N)C(=O)N[C@@H](CCCCN)C(=O)N[C@@H](Cc1c[nH]c2ccccc12)C(=O)N[C@@H](CC(C)C)C(=O)N[C@@H](C)C(=O)N[C@@H](CCCCN)C(=O)N[C@@H](CCCCN)C(N)=O [K4R2-Nal2-S1, Ac-KKKKRR-Nal-Nal-KKWRKWLAKK-NH2] (Ac-KKKKRR[2Nal][2Nal]KKWRKWLAKK-NH2)
5 mg/kg i.v., three times weekly
  tumor growth: significant inhibition
[1]
  volume of tumors harvested: decreased
  weight of tumors harvested: decreased
46th day after implantation, 6 mice×2 side implantation, 12 in the PBS group
  number of exposed tumors: 7
Excised xenograft tumors
  necrosis in tumors (H&E staining): large scale of necrosis regions
Excised xenograft tumors, next to the necrosis regions
  cleaved PARP expression (immunohistochemistry): increased expression of cleaved PARP

Reference: US10093699B2, “Peptides with antimicrobial, anticancer and/or wound-healing promoting activities, pharmaceutical compositions containing the same, and use of the peptides with antimicrobial, anticancer and/or wound-healing promoting activities” (priority 2015, dated 2018)
